# Experimental data taken from ChEMBL document CHEMBL3627642 (Bioorg Med Chem, 2015).
# Experiments:
# [1] = Inhibition of thrombin-induced rabbit platelet aggregation after 4 hrs in presence of rabbit liver microsomes; parameters: species or system Oryctolagus cuniculus
# [2] = system: Rattus norvegicus; experiment: Antithrombotic activity in Sprague-Dawley rat venous thrombosis model assessed as reduction of thrombus weight administered intragastrically qd for 3 days measured 2 hrs after last dose; format: functional, organism-based
# [3] = target: Prothrombin (Homo sapiens, UniProt P00734); experiment: Inhibition of human thrombin using tosyl-glycyl-prolyl-arginine-4-nitranilide acetate as substrate preincubated for 10 mins by spectrophotometer analysis
# [4] = system: Mus musculus; experiment: Toxicity in mouse assessed as bleeding time at 22 mg/kg, po administered 90 mins before surgery measured up to 15 mins by tail bleeding test; format: organism-based; conditions: in vivo
SMILES,IC50 [1] [nM],IC50 [3] [nM],Activity [2],Activity [4]
CCCCCOC(=O)/N=C(\N)c1ccc(CC2c3nc4cc(C(=O)N(CCC(=O)OCC)c5ccccn5)ccc4n3CCN2C(=O)OCCCCC)cc1 (stereo not given),17900,–,–,–
CCOC(=O)CCN(C(=O)c1ccc2c(c1)nc1n2CCNC1Cc1ccc(/C(N)=N/C(=O)OCc2ccccc2)cc1)c1ccccn1 (stereo not given),5960,–,–,–
CCOC(=O)CCN(C(=O)c1ccc2c(c1)nc1n2CCN(C(=O)OCc2ccccc2)C1Cc1ccc(/C(N)=N/C(=O)OCc2ccccc2)cc1)c1ccccn1 (stereo not given),9660,–,–,–
CCOC(=O)CCN(C(=O)c1ccc2c(c1)nc1n2CCN(C(=O)OCC(C)C)C1Cc1ccc(/C(N)=N/C(=O)OCC(C)C)cc1)c1ccccn1 (stereo not given),8720,–,–,–
N=C(N)c1ccc(CC2NCCn3c2nc2cc(C(=O)N(CCC(=O)O)c4ccccc4)ccc23)cc1 (stereo not given),–,7.48,–,–
CCOC(=O)CCN(C(=O)c1ccc2c(c1)nc1n2CCNC1Cc1ccc(/C(N)=N/C(=O)OC(C)(C)C)cc1)c1ccccn1 (stereo not given),3320,–,–,–
CCCCCCOC(=O)/N=C(\N)c1ccc(CC2c3nc4cc(C(=O)N(CCC(=O)OCC)c5ccccc5)ccc4n3CCN2C(=O)OCCCCCC)cc1 (stereo not given),910,–,Dose-dependent effect,Non-toxic
CCOC(=O)CCN(C(=O)c1ccc2c(c1)nc1n2CCN(C(=O)OC(C)(C)C)C1Cc1ccc(/C(N)=N/C(=O)OC(C)(C)C)cc1)c1ccccn1 (stereo not given),13800,–,–,–
N=C(N)c1ccc(CC2NCCn3c2nc2cc(C(=O)N(CCC(=O)O)c4ccccn4)ccc23)cc1 (stereo not given),600,9.2,–,–
CCOC(=O)CCN(C(=O)c1ccc2c(c1)nc1n2CCNC1Cc1ccc(/C(N)=N/C(=O)OCC(C)C)cc1)c1ccccn1 (stereo not given),840,–,–,–
CCOC(=O)CCN(C(=O)c1ccc2c(c1)nc1n2CCNC1Cc1ccc(/C(N)=N/C(=O)OC(C)C)cc1)c1ccccn1 (stereo not given),870,–,–,–
CCOC(=O)CCN(C(=O)c1ccc2c(c1)nc1n2CCNC1Cc1ccc(/C(N)=N/C(=O)OC(C)C)cc1)c1ccccc1 (stereo not given),1540,–,Dose-dependent effect,Toxic
CCCCCCOC(=O)/N=C(\N)c1ccc(CC2NCCn3c2nc2cc(C(=O)N(CCC(=O)OCC)c4ccccn4)ccc23)cc1 (stereo not given),730,–,Dose-dependent effect,Toxic
CCCCCCOC(=O)/N=C(\N)c1ccc(CC2NCCn3c2nc2cc(C(=O)N(CCC(=O)OCC)c4ccccc4)ccc23)cc1 (stereo not given),1440,–,Dose-dependent effect,Non-toxic

# Now from value to compound, other results behind:
IC50 [1] [nM],IC50 [3] [nM],SMILES,Activity [2],Activity [4]
4090,–,CCOC(=O)CCN(C(=O)c1ccc2c(c1)nc1n2CCNC1Cc1ccc(/C(N)=N/C(=O)OCC)cc1)c1ccccn1 (stereo not given),–,–
1520,–,CCOC(=O)CCN(C(=O)c1ccc2c(c1)nc1n2CCN(C(=O)OC(C)C)C1Cc1ccc(/C(N)=N/C(=O)OC(C)C)cc1)c1ccccn1 (stereo not given),–,–
27200,–,CCCCCOC(=O)/N=C(\N)c1ccc(CC2NCCn3c2nc2cc(C(=O)N(CCC(=O)OCC)c4ccccn4)ccc23)cc1 (stereo not given),–,–
860,–,CCOC(=O)CCN(C(=O)c1ccc2c(c1)nc1n2CCN(C(=O)OC(C)C)C1Cc1ccc(/C(N)=N/C(=O)OC(C)C)cc1)c1ccccc1 (stereo not given),Dose-dependent effect,–
750,–,CCCCCCOC(=O)/N=C(\N)c1ccc(CC2c3nc4cc(C(=O)N(CCC(=O)OCC)c5ccccn5)ccc4n3CCN2C(=O)OCCCCCC)cc1 (stereo not given),Dose-dependent effect,Non-toxic
1210,–,CCCCCCOC(=O)/N=C(\N)c1ccc(CC2NCCn3c2nc2cc(C(=O)N(CCC(=O)OCc4nc(C)c(C)nc4C)c4ccccc4)ccc23)cc1 (stereo not given),Dose-dependent effect,Toxic
3420,–,CCOC(=O)CCN(C(=O)c1ccc2c(c1)nc1n2CCN(C(=O)OCC)C1Cc1ccc(/C(N)=N/C(=O)OCC)cc1)c1ccccn1 (stereo not given),–,–
640,–,CCCCCCOC(=O)/N=C(\N)c1ccc(CC2NCCn3c2nc2cc(C(=O)N(CCC(=O)OCc4nc(C)c(C)nc4C)c4ccccn4)ccc23)cc1 (stereo not given),Dose-dependent effect,Non-toxic
340,–,CCCCCCOC(=O)NC(=N)c1ccc(NCc2nc3cc(C(=O)N(CCC(=O)OCC)c4ccccn4)ccc3n2C)cc1 [DABIGATRAN ETEXILATE],Dose-dependent effect,–
